In US20080269241A1, “BICYCLIC AMINOPROPYL TETRAHYDRO-PYRAZOLO-PYRIDINE MODULATORS OF CATHEPSIN S” (priority 2007, published 2008) one finds IC50 data, which are given here for 21 compounds.

The target in the test is T1, human cathepsin S (CatS) (Homo sapiens, UniProt P25774).
T1 construct: made in house; host or cells: baculovirus system (insect cells)
T1 sequence (P25774 115-331): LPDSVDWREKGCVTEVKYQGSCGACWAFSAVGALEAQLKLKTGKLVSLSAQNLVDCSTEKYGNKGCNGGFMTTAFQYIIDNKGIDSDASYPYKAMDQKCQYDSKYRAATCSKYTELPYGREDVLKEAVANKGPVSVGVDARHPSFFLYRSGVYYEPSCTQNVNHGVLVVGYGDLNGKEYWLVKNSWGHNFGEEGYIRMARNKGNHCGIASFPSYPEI
Nature of the test: Recombinant human cathepsin S (CatS) fluorogenic substrate inhibition assay. It is filed as biochemical. The settings on record: recombinant human CatS, 10 μM Z-Valine-Valine-Arginine-AMC, pH 5.0; average of results obtained; read-out: CatS IC50. On the procedure: Recombinant human cathepsin S (CatS) was expressed in the baculovirus system and purified in one step with a thiopropyl-sepharose column. […] The assay is run in 150 mM sodium acetate pH 5.0 containing 1.5 mM DTT and 150 mM NaCl. […] Measurements are taken every min for 20 min. The rate is calculated from the slope of the increase in fluorescence and the percent inhibition is calculated from this.
In general, IC50 refers to the concentration at which inhibition is half-maximal. For `CC(C)CCNCc1cc(-c2nn(CC(O)CN3CCC(N4CCOCC4)CC3)c3c2CN(S(C)(=O)=O)CC3)ccc1C(F)(F)F` (stereo not drawn) [Example 282, 1-(5-Methanesulfonyl-3-{3-[(3-methyl-butylamino)-methyl]-4-trifluoromethyl-phenyl}-4,5,6,7-tetrahydro-pyrazolo[4,3-c]pyridin-1-yl)-3-(4-morpholin-4-yl-piperidin-1-yl)-propan-2-ol], the IC50 stood at 860 nM.
For `CC(C)CC(=O)NCc1cc(-c2nn(CC(O)CN3CCC(N4CCOC4=O)CC3)c3c2CN(S(C)(=O)=O)CC3)ccc1C(F)(F)F` (stereo not drawn) [Example 252, N-[5-(1-{2-Hydroxy-3-[4-(2-oxo-oxazolidin-3-yl)-piperidin-1-yl]-propyl}-5-methanesulfonyl-4,5,6,7-tetrahydro-1H-pyrazolo[4,3-c]pyridin-3-yl)-2-trifluoromethyl-benzyl]-3-methyl-butyramide] the value was 140 nM.
`Cc1nnsc1C(=O)NCc1cc(-c2nn(CC(O)CN3CCC(N4CCCC4=O)CC3)c3c2CN(S(C)(=O)=O)CC3)ccc1C(F)(F)F` (stereo not drawn) [Example 51, 4-Methyl-[1,2,3]thiadiazole-5-carboxylic acid 5-(1-{2-hydroxy-3-[4-(2-oxo-pyrrolidin-1-yl)-piperidin-1-yl]-propyl}-5-methanesulfonyl-4,5,6,7-tetrahydro-1H-pyrazolo[4,3-c]pyridin-3-yl)-2-trifluoromethyl-benzylamide]: the IC50 came out at 200 nM.
Regarding `CS(=O)(=O)N1CCc2c(c(-c3ccc(C(F)(F)F)c(CNC(=O)c4cc5c(s4)CCC5)c3)nn2CC(O)CN2CCC(N3CCCC3=O)CC2)C1` (stereo not drawn) [Example 50, 5,6-Dihydro-4H-cyclopenta[b]thiophene-2-carboxylic acid 5-(1-{2-hydroxy-3-[4-(2-oxo-pyrrolidin-1-yl)-piperidin-1-yl]-propyl}-5-methanesulfonyl-4,5,6,7-tetrahydro-1H-pyrazolo[4,3-c]pyridin-3-yl)-2-trifluoromethyl-benzylamide], the IC50 worked out at 30 nM.
In the case of `CS(=O)(=O)N1CCc2c(c(-c3ccc(C(F)(F)F)c(CNC(=O)c4ccc(C(F)(F)F)nc4)c3)nn2CC(O)CN2CCC(N3CCCC3=O)CC2)C1` (stereo not drawn) [Example 54, N-[5-(1-{2-Hydroxy-3-[4-(2-oxo-pyrrolidin-1-yl)-piperidin-1-yl]-propyl}-5-methanesulfonyl-4,5,6,7-tetrahydro-1H-pyrazolo[4,3-c]pyridin-3-yl)-2-trifluoromethyl-benzyl]-6-trifluoromethyl-nicotinamide], the half-inhibitory concentration (IC50) stood at 70 nM.
The figure for `CS(=O)(=O)N1CCc2c(c(-c3ccc(Cl)c(NS(=O)(=O)Cc4ccccc4)c3)nn2CCCN2CCN(c3cccc(Cl)c3)CC2)C1` [Example 202, N-[2-Chloro-5-(1-{3-[4-(3-chloro-phenyl)-piperazin-1-yl]-propyl}-5-methanesulfonyl-4,5,6,7-tetrahydro-1H-pyrazolo[4,3-c]pyridin-3-yl)-phenyl]-C-phenyl-methanesulfonamide] is 680 nM; for `CC(C)NC(=O)NCc1cc(-c2nn(CCCN3CCC(N4CCCC4=O)CC3)c3c2CN(S(C)(=O)=O)CC3)ccc1C(F)(F)F` [Example 44, 1-Isopropyl-3-[5-(5-methanesulfonyl-1-{3-[4-(2-oxo-pyrrolidin-1-yl)-piperidin-1-yl]-propyl}-4,5,6,7-tetrahydro-1H-pyrazolo[4,3-c]pyridin-3-yl)-2-trifluoromethyl-benzyl]-urea] it is 160 nM.
As to `CC(=O)NCc1cc(-c2nn(CC(O)CN3CCC(n4c(=O)n(C)c5ccc(N(C)C)nc54)CC3)c3c2CN(S(C)(=O)=O)CC3)ccc1C(F)(F)F` (stereo not drawn) [Example 143, N-[5-(1-{3-[4-(5-Dimethylamino-1-methyl-2-oxo-1,2-dihydro-imidazo[4,5-b]pyridin-3-yl)-piperidin-1-yl]-2-hydroxy-propyl}-5-methanesulfonyl-4,5,6,7-tetrahydro-1H-pyrazolo[4,3-c]pyridin-3-yl)-2-trifluoromethyl-benzyl]-acetamide], the IC50 was 100 nM.
For `CN(C)CCC(=O)NCc1cc(-c2nn(CCCN3CCC(N4CCCC4=O)CC3)c3c2CN(S(C)(=O)=O)CC3)ccc1C(F)(F)F` [Example 181, 3-Dimethylamino-N-[5-(5-methanesulfonyl-1-{3-[4-(2-oxo-pyrrolidin-1-yl)-piperidin-1-yl]-propyl}-4,5,6,7-tetrahydro-1H-pyrazolo[4,3-c]pyridin-3-yl)-2-trifluoromethyl-benzyl]-propionamide] the value was 1520 nM; for `CC1CCCN(CC(=O)NCc2cc(-c3nn(CCCN4CCC(N5CCCC5=O)CC4)c4c3CN(S(C)(=O)=O)CC4)ccc2C(F)(F)F)C1` (stereo not drawn) [Example 223, N-[5-(5-Methanesulfonyl-1-{3-[4-(2-oxo-pyrrolidin-1-yl)-piperidin-1-yl]-propyl}-4,5,6,7-tetrahydro-1H-pyrazolo[4,3-c]pyridin-3-yl)-2-trifluoromethyl-benzyl]-2-(3-methyl-piperidin-1-yl)-acetamide], 700 nM.
For `CC(C)CC(=O)NCc1cc(-c2nn(CC(O)CN3CCC(N4CCCC4)CC3)c3c2CN(S(C)(=O)=O)CC3)ccc1C(F)(F)F` (stereo not drawn) [Example 248, N-(5-{1-[2-Hydroxy-3-(4-pyrrolidin-1-yl-piperidin-1-yl)-propyl]-5-methanesulfonyl-4,5,6,7-tetrahydro-1H-pyrazolo[4,3-c]pyridin-3-yl}-2-trifluoromethyl-benzyl)-3-methyl-butyramide], the 50% inhibitory concentration (IC50) is 120 nM.
On to `CC(=O)Nc1cc(C(=O)NCc2cc(-c3nn(CC(O)CN4CCC(N5CCCC5=O)CC4)c4c3CN(S(C)(=O)=O)CC4)ccc2C(F)(F)F)ccn1` (stereo not drawn) [Example 129, 2-Acetylamino-N-[5-(1-{2-hydroxy-3-[4-(2-oxo-pyrrolidin-1-yl)-piperidin-1-yl]-propyl}-5-methanesulfonyl-4,5,6,7-tetrahydro-1H-pyrazolo[4,3-c]pyridin-3-yl)-2-trifluoromethyl-benzyl]-isonicotinamide], for which the IC50 was determined as 250 nM.
The figure for `CS(=O)(=O)N1CCc2c(c(-c3ccc(C(F)(F)F)c(Cn4cnnn4)c3)nn2CCCN2CCC(N3CCCC3=O)CC2)C1` [Example 176, 1-(1-{3-[5-Methanesulfonyl-3-(3-tetrazol-1-ylmethyl-4-trifluoromethyl-phenyl)-4,5,6,7-tetrahydro-pyrazolo[4,3-c]pyridin-1-yl]-propyl}-piperidin-4-yl)-pyrrolidin-2-one] is 1320 nM.
For the compound `CS(=O)(=O)N1CCc2c(c(-c3ccc(C(F)(F)F)c(CNC(=O)c4ccc(F)cc4)c3)nn2CC(O)CN2CCC(N3CCCC3=O)CC2)C1` (stereo not drawn) [Example 17, 4-Fluoro-N-[5-(1-{2-hydroxy-3-[4-(2-oxo-pyrrolidin-1-yl)-piperidin-1-yl]-propyl}-5-methanesulfonyl-4,5,6,7-tetrahydro-1H-pyrazolo[4,3-c]pyridin-3-yl)-2-trifluoromethyl-benzyl]-benzamide], the half-maximal inhibitory concentration (IC50) came to 20 nM.
For `CS(=O)(=O)N1CCc2c(c(-c3ccc(C(F)(F)F)c(CNC(=O)c4ccncc4)c3)nn2CC(O)CN2CCC(N3CCCC3=O)CC2)C1` (stereo not drawn) [Example 128, N-[5-(1-{2-Hydroxy-3-[4-(2-oxo-pyrrolidin-1-yl)-piperidin-1-yl]-propyl}-5-methanesulfonyl-4,5,6,7-tetrahydro-1H-pyrazolo[4,3-c]pyridin-3-yl)-2-trifluoromethyl-benzyl]-isonicotinamide] the value was 240 nM; for `COc1ccc(NCc2cc(-c3nn(CCCN4CCC(N5CCCC5=O)CC4)c4c3CN(S(C)(=O)=O)CC4)ccc2Cl)cc1` [Example 209, 1-{1-[3-(3-{4-Chloro-3-[(4-methoxy-phenylamino)-methyl]-phenyl}-5-methanesulfonyl-4,5,6,7-tetrahydro-pyrazolo[4,3-c]pyridin-1-yl)-propyl]-piperidin-4-yl}-pyrrolidin-2-one], 660 nM; for `CC(C)CCNCc1cc(-c2nn(CCCN3CCC(N4CCCC4=O)CC3)c3c2CN(S(C)(=O)=O)CC3)ccc1C(F)(F)F` [Example 47, 1-{1-[3-(5-Methanesulfonyl-3-{3-[(3-methyl-butylamino)-methyl]-4-trifluoromethyl-phenyl}-4,5,6,7-tetrahydro-pyrazolo[4,3-c]pyridin-1-yl)-propyl]-piperidin-4-yl}-pyrrolidin-2-one], 300 nM.
On to `CS(=O)(=O)N1CCc2c(c(-c3ccc(C(F)(F)F)c(CNC(=O)CC4CCCC4)c3)nn2CCCN2CCC(N3CCCC3=O)CC2)C1` [Example 108, 2-Cyclopentyl-N-[5-(5-methanesulfonyl-1-{3-[4-(2-oxo-pyrrolidin-1-yl)-piperidin-1-yl]-propyl}-4,5,6,7-tetrahydro-1H-pyrazolo[4,3-c]pyridin-3-yl)-2-trifluoromethyl-benzyl]-acetamide], for which the IC50 came out at 80 nM.
Consider `CS(=O)(=O)N1CCc2c(c(-c3ccc(C(F)(F)F)c(CNC(=O)c4ccc(F)cc4O)c3)nn2CC(O)CN2CCC(N3CCCC3=O)CC2)C1` (stereo not drawn) [Example 104, 4-Fluoro-2-hydroxy-N-[5-(1-{2-hydroxy-3-[4-(2-oxo-pyrrolidin-1-yl)-piperidin-1-yl]-propyl}-5-methanesulfonyl-4,5,6,7-tetrahydro-1H-pyrazolo[4,3-c]pyridin-3-yl)-2-trifluoromethyl-benzyl]-benzamide], for which the IC50 amounted to 60 nM.
With `CC(C)=CC(=O)NCc1cc(-c2nn(CC(O)CN3CCC(O)(c4ccccn4)CC3)c3c2CN(S(C)(=O)=O)CC3)ccc1C(F)(F)F` (stereo not drawn) [Example 266, 3-Methyl-but-2-enoic acid 5-{1-[2-hydroxy-3-(4′-hydroxy-3′,4′,5′,6′-tetrahydro-2′H-[2,4′]bipyridinyl-1′-yl)-propyl]-5-methanesulfonyl-4,5,6,7-tetrahydro-1H-pyrazolo[4,3-c]pyridin-3-yl}-2-trifluoromethyl-benzylamide], the IC50 turned out to be 10 nM.
For `CS(=O)(=O)N1CCc2c(c(-c3ccc(Cl)c(CNc4ccccc4)c3)nn2CCCN2CCC(N3CCCC3=O)CC2)C1` [Example 207, 1-(1-{3-[3-(4-Chloro-3-phenylaminomethyl-phenyl)-5-methanesulfonyl-4,5,6,7-tetrahydro-pyrazolo[4,3-c]pyridin-1-yl]-propyl}-piperidin-4-yl)-pyrrolidin-2-one] the value was 2250 nM.
